Experimental data reported in patent US10407409B2, “6-(5-hydroxy-1H-pyrazol-1-yl)nicotinamide inhibitors of PHD” (Takeda Pharmaceutical Company Limited, priority 2013, dated 2019).
Structures can show the parent of a compound that is named as a salt.

tested on: HIF1a protein in H9c2 rat cardiomyocytes; test: Cell-based HIF-alpha stabilization assay (inhibition of PHD in cells); conditions: 24 hrs compound incubation, HIF1a protein by ELISA
Description: Example B Inhibition of PHD in Cells
PHD Inhibition is Determined Using (Secondary Assay)
Cell-Based HIF-Alpha Stabilization Assay:
H9c2 rat cardiomyocytes (ATCC) were seeded in 96-well tissue culture microplates and cultured for 24 hours prior to addition of compounds (11 point range of serial dilutions) or dimethylsulfoxide vehicle. After 24 hrs of compound incubation, whole cell extracts were prepared by lysing cells in cell extraction buffer containing protease and phosphatase inhibitors (Meso-Scale Discovery). HIF1a protein content was assessed by ELISA (Meso-Scale Discovery) and expressed as a % relative to the maximum response obtained from the positive control, desferrioxamine (Sigma-Aldrich). Compound EC50s were obtained by curve-fitting using XLfit4 MicroSoft Excel curve-fitting software. Compound EC50pos were obtained using XLfit4 to calculate the compound concentration that results in 50% of the desferrioxamine maximum response.

| Structure (SMILES) | Inhibition of PHD in cells (pEC50) |
| --- | --- |
| COc1cc(-c2cnn(-c3ccc(C(=O)NCCCn4ccnc4)cn3)c2O)ccn1 [Example 21, N-(3-(1H-imidazol-1-yl)propyl)-6-(5-hydroxy-4-(2-methoxypyridin-4-yl)-1H-pyrazol-1-yl)nicotinamide] | 6.46 |

same assay, conditions: Rattus norvegicus, H9c2, 24 h, 24 hrs compound incubation, HIF1a protein by ELISA, read-out: Inhibition of PHD in cells (pEC50) (converted)

| Structure (SMILES) | EC50 [nM] |
| --- | --- |
| COc1cc(-c2cnn(-c3ccc(C(=O)NCCC4CCOCC4)cn3)c2O)ccn1 [Example 11, 6-(5-hydroxy-4-(2-methoxypyridin-4-yl)-1H-pyrazol-1-yl)-N-(2-(tetrahydro-2H-pyran-4-yl)ethyl)nicotinamide] | 537 |
| COc1cc(-c2cnn(-c3ccc(C(=O)NCCCN4CCCCC4)cn3)c2O)ccn1 [Example 18, 6-(5-hydroxy-4-(2-methoxypyridin-4-yl)-1H-pyrazol-1-yl)-N-(3-(piperidin-1-yl)propyl)nicotinamide] | 933 |
| COc1cc(-c2cnn(-c3ccc(C(=O)NCCCN4CCCC4)cn3)c2O)ccn1 [Example 19, 6-(5-hydroxy-4-(2-methoxypyridin-4-yl)-1H-pyrazol-1-yl)-N-(3-(pyrrolidin-1-yl)propyl)nicotinamide] | 1380 |
| COc1cc(-c2cnn(-c3ccc(C(=O)NCCC4CCCN4C)cn3)c2O)ccn1 (centres unmarked) [Example 23, 6-(5-hydroxy-4-(2-methoxypyridin-4-yl)-1H-pyrazol-1-yl)-N-(2-(1-methylpyrrolidin-2-yl)ethyl)nicotinamide] | 1000 |
| COc1cc(-c2cnn(-c3ccc(C(=O)NCCCN4CCCCC4C)cn3)c2O)ccn1 (centres unmarked) [Example 29, 6-(5-hydroxy-4-(2-methoxypyridin-4-yl)-1H-pyrazol-1-yl)-N-(3-(2-methylpiperidin-1-yl)propyl)nicotinamide] | 871 |
| N#Cc1ccc(-c2cnn(-c3ccc(C(=O)NC4CCc5ccc(Cl)cc54)cn3)c2O)cc1 (centres unmarked) [Example 79, N-(6-chloro-2,3-dihydro-1H-inden-1-yl)-6-(4-(4-cyanophenyl)-5-hydroxy-1H-pyrazol-1-yl)nicotinamide] | 1320 |
| CN1CCC(NC(=O)c2ccc(-n3ncc(-c4ccc(C#N)cc4)c3O)nc2)CC1=O (centres unmarked) [Example 82, 6-(4-(4-cyanophenyl)-5-hydroxy-1H-pyrazol-1-yl)-N-(1-methyl-2-oxopiperidin-4-yl)nicotinamide] | 4790 |
| COc1ccc2c(c1)C(NC(=O)c1ccc(-n3ncc(-c4ccc(C#N)cc4)c3O)nc1)CC2 (centres unmarked) [Example 83, 6-(4-(4-cyanophenyl)-5-hydroxy-1H-pyrazol-1-yl)-N-(6-methoxy-2,3-dihydro-1H-inden-1-yl)nicotinamide] | 1780 |

biological target: PHD2 enzyme (residues 181-417) (Homo sapiens (Human), UniProt Q9GZT9); test: Inhibition of PHD enzyme (LC/MS peptide hydroxylation assay); format: biochemical; conditions: PHD2 (residues 181-417) 5 nM, 60 min pre-incubation; -log(IC50), IC50 molar
Sequence (Q9GZT9 181-417): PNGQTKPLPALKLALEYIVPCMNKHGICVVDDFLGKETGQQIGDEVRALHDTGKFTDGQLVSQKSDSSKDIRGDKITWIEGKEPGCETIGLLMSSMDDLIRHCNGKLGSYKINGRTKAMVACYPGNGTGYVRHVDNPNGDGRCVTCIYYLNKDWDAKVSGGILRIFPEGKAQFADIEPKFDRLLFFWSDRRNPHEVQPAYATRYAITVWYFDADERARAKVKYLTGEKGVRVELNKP
Description: Example A Inhibition of PHD Enzyme
The IC50 values for the PHD2 enzyme (residues 181-417) were determined by mixing increasing amounts of inhibitor with a fixed amount of enzyme (5 nM, final concentration) and Biotin labeled peptide (Biotin-Asp-Leu-Glu-Met-Leu-Ala-Pro-Tyr-Ile-Pro-Met-Asp-Asp-Asp-Phe-Gln-Leu, 1 uM final concentration) and 2-Oxyglutarate (2 uM final concentration) in 50 mM HEPES, 50 mM KCl, 0.5 mM TCEP, 2 uM FeCl2, 0.1 mg/ml BSA, at pH 7.3. The reaction was conducted by pre-incubating the enzyme in the presence of inhibitor for 60 min at room temperature. The activity of the free enzyme was measured by adding the peptide, the 2-Oxoglutarate (see above for final concentrations), and Ascorbic Acid (1 mM final concentration). The enzymatic activity was quenched after 60 min by adding an excess of a tight binding inhibitor to the assay mixture. The amount of product released was measured by using a LC/MS system (Agilent HPLC with Applied Biosystems API3000 Mass Spectrometer). Data were analyzed using the classical isotherm equation for the determination of IC50 values and are pIC50, i.e., −log(IC50), where IC50 is molar concentration and are reported as pIC50, i.e., −log(IC50), where IC50 is molar concentration.

| Structure (SMILES) | PHD Inhibition (pIC50) |
| --- | --- |
| COc1cc(-c2cnn(-c3ccc(C(=O)NC(CO)C4CCOC4)cn3)c2O)ccn1 (centres unmarked) [Example 27, N-(2-hydroxy-1-(tetrahydrofuran-3-yl)ethyl)-6-(5-hydroxy-4-(2-methoxypyridin-4-yl)-1H-pyrazol-1-yl)nicotinamide] | 6.99 |
| COc1cc(-c2cnn(-c3ccc(C(=O)NCCCCO)cn3)c2O)ccn1 [Example 28, 6-(5-hydroxy-4-(2-methoxypyridin-4-yl)-1H-pyrazol-1-yl)-N-(4-hydroxybutyl)nicotinamide] | 7.01 |
| CCN1CCC(NC(=O)c2ccc(-n3ncc(-c4ccnc(OC)c4)c3O)nc2)CC1 [Example 37, N-(1-ethylpiperidin-4-yl)-6-(5-hydroxy-4-(2-methoxypyridin-4-yl)-1H-pyrazol-1-yl)nicotinamide] | 7.4 |
| COc1cc(-c2cnn(-c3ccc(C(=O)NCCCN(C)C)cn3)c2O)ccn1 [Example 44, N-(3-(dimethylamino)propyl)-6-(5-hydroxy-4-(2-methoxypyridin-4-yl)-1H-pyrazol-1-yl)nicotinamide] | 7.3 |
| N#Cc1ccc(-c2cnn(-c3ccc(C(=O)N[C@H]4CCNC4)cn3)c2O)cc1 [Example 73, (S)-6-(4-(4-cyanophenyl)-5-hydroxy-1H-pyrazol-1-yl)-N-(pyrrolidin-3-yl)nicotinamide] | 7.2 |
| CC1CCCCN1CCCNC(=O)c1ccc(-n2ncc(-c3ccc(C#N)cc3)c2O)nc1 (centres unmarked) [Example 90, 6-(4-(4-cyanophenyl)-5-hydroxy-1H-pyrazol-1-yl)-N-(3-(2-methylpiperidin-1-yl)propyl)nicotinamide] | 6.95 |
| CN1CCC(CNC(=O)c2ccc(-n3ncc(-c4ccc(C#N)cc4)c3O)nc2)C1 (centres unmarked) [Example 92, 6-(4-(4-cyanophenyl)-5-hydroxy-1H-pyrazol-1-yl)-N-((1-methylpyrrolidin-3-yl)methyl)nicotinamide] | 6.87 |
| COCCC1(NC(=O)c2ccc(-n3ncc(-c4ccc(C#N)cc4F)c3O)nc2)CC1 [Example 210, 6-(4-(4-cyano-2-fluorophenyl)-5-hydroxy-1H-pyrazol-1-yl)-N-(1-(2-methoxyethyl)cyclopropyl)nicotinamide] | 8.3 |
| CNCCCNC(=O)c1ccc(-n2ncc(-c3ccc(C#N)cc3)c2O)nc1 [Example 272, 6-(4-(4-cyanophenyl)-5-hydroxy-1H-pyrazol-1-yl)-N-(3-(methylamino)propyl)nicotinamide hydrochloride] | 7.03 |

Further lines, results first:

| PHD Inhibition (pIC50) | Structure (SMILES) |
| --- | --- |
| 6.21 | CN(C)c1cc(-c2cnn(-c3ccc(C(=O)NCC4CCOCC4)cn3)c2O)ccn1 [Example 212, 6-(4-(2-(dimethylamino)pyridin-4-yl)-5-hydroxy-1H-pyrazol-1-yl)-N-((tetrahydro-2H-pyran-4-yl)methyl)nicotinamide] |
| 5.83 | Cc1cc(-c2cnn(-c3ccc(C(=O)NCC4CCOCC4)cn3)c2O)cc(C)n1 [Example 224, 6-(4-(2,6-dimethylpyridin-4-yl)-5-hydroxy-1H-pyrazol-1-yl)-N-((tetrahydro-2H-pyran-4-yl)methyl)nicotinamide] |
| 6.6 | O=C(NCC1CCOCC1)c1ccc(-n2ncc(-c3ccncc3)c2O)nc1 [Example 226, 6-(5-hydroxy-4-(pyridin-4-yl)-1H-pyrazol-1-yl)-N-((tetrahydro-2H-pyran-4-yl)methyl)nicotinamide] |
| 6.63 | COCCCN(C)C(=O)c1ccc(-n2ncc(-c3ccc(C#N)cc3OC)c2O)nc1 [Example 240, 6-(4-(4-cyano-2-methoxyphenyl)-5-hydroxy-1H-pyrazol-1-yl)-N-(3-methoxypropyl)-N-methylnicotinamide] |
| 6.72 | N#Cc1ccc(-c2cnn(-c3ccc(C(=O)NCC4CCC4)cn3)c2O)cc1 [Example 256, 6-(4-(4-cyanophenyl)-5-hydroxy-1H-pyrazol-1-yl)-N-(cyclobutylmethyl)nicotinamide] |
| 7.24 | CC1CC(CNC(=O)c2ccc(-n3ncc(-c4ccc(C#N)cc4)c3O)nc2)C1 (centres unmarked) [Example 257, 6-(4-(4-cyanophenyl)-5-hydroxy-1H-pyrazol-1-yl)-N-((3-methylcyclobutyl)methyl)nicotinamide] |
| 8.23 | Cc1cc(C#N)ccc1-c1cnn(-c2ccc(C(=O)N3CCN4CCCC4C3)cn2)c1O (centres unmarked) [Example 407, 4-(5-hydroxy-1-(5-(octahydropyrrolo[1,2-a]pyrazine-2-carbonyl)pyridin-2-yl)-1H-pyrazol-4-yl)-3-methylbenzonitrile] |
| 7.70 | CCCN1CCCN(C(=O)c2ccc(-n3ncc(-c4ccc(C#N)cc4C)c3O)nc2)CC1 [Example 424, 4-(5-hydroxy-1-(5-(4-propyl-1,4-diazepane-1-carbonyl)pyridin-2-yl)-1H-pyrazol-4-yl)-3-methylbenzonitrile] |
